As a reminder, the IC50 is the point on the concentration scale where inhibition reaches its midpoint. What is called Ki is a dissociation constant, usually derived from enzyme kinetics or from competition with a known ligand.

Each structure is given as a SMILES string. Residue numbers refer to the chain shown, from its start. ≈ marks a conversion by molar mass, not a printed value. Where two headings read alike, the source gives them in different places.

Experimental findings from PMC6458069 (Molecular microbiology, 2019) are described below.

For assay [1], the target named is human protein disulfide isomerase (PDI) (Homo sapiens, UniProt P07237). Briefly: PDI insulin reduction assay. It is filed as biochemical.
Chain of human protein disulfide isomerase (PDI) (P07237 18-508): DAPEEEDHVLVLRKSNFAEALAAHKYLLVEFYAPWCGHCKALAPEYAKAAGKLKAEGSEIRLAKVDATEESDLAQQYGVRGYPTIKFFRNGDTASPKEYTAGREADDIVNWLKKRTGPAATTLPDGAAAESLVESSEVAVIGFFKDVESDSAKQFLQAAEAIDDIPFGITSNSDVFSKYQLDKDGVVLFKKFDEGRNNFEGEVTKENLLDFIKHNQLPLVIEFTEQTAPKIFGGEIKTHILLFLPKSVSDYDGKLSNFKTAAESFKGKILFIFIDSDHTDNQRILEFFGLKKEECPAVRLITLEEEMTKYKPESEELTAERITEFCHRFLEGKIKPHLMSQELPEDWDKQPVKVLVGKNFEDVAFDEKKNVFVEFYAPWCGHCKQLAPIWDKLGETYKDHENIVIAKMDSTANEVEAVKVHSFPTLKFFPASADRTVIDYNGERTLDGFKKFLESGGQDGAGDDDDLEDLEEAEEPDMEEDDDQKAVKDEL
For another assay, the target named is MtVKOR (Mycobacterium tuberculosis, UniProt I6X5W1). Nature of the assay: In vitro ubiquinone reduction assay with purified MtVKOR. It is filed as biochemical, M. tuberculosis.
Assay [2] has as its system MtVKOR expressed in E. coli. In kind it is cell-based, M. tuberculosis.
Assay [3] has as its target T1, PaDsbB1 expressed in E. coli (Pseudomonas aeruginosa, UniProt Q02TM7).
T1 sequence (Q02TM7 1-169): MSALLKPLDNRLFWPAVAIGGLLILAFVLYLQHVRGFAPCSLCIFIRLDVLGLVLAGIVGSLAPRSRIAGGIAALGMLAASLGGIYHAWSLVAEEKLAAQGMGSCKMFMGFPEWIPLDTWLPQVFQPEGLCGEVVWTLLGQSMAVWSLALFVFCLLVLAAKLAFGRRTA
In kind it is cell-based, P. aeruginosa. The following applies: agar plates, HTS control.

The next assay relates to M. tuberculosis H37Rv. Nature of the assay: M. tuberculosis H37Rv growth inhibition. The following applies: alamar blue assay, ±SD. In general terms: Resazurin is reduced to fluorescent resorufin, in cell work by metabolically active cells.
The subject of assay [4] is M. tuberculosis JR1740 strain. In kind it is cell-based. The following applies: JR1740 ± ATc.
Assay [5] addresses T2, RnVKOR expressed in E. coli (Rattus norvegicus, UniProt Q6TEK4, DEL31-33).
T2 sequence (Q6TEK4 with tags, fused parts or gaps DEL31-33): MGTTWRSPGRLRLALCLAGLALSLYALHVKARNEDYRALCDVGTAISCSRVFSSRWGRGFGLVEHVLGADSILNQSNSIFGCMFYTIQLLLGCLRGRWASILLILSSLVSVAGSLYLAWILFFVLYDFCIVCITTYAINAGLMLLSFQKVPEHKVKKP
Briefly: Agar β-Gal^dbs assay, E. coli expressing RnVKOR. It is filed as cell-based. The following applies: FSH250 strain (Figure 4).

A further assay has as its target T3, PaDsbB1 (Pseudomonas aeruginosa, UniProt Q02TM7, C154Y).
T3 sequence (Q02TM7 1-169 C154Y): T1 sequence (Q02TM7 1-169) with C154Y
Nature of the assay: In vitro ubiquinone reduction assay with purified PaDsbB1. In kind it is biochemical, P. aeruginosa.

The target in the next assay is T4, EcDsbB (Escherichia coli, UniProt P0A6M2, C49V/C8A).
T4 sequence (P0A6M2 1-176 C8A/C49V): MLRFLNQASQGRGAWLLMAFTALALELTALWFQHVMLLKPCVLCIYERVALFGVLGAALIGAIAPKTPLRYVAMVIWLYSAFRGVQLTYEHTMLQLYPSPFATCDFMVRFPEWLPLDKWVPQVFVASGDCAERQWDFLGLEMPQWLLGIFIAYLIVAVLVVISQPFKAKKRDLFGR
Nature of the assay: In vitro ubiquinone reduction assay with purified EcDsbB. In kind it is biochemical, E. coli.

A further assay deals with T5, PaDsbB2 (Pseudomonas aeruginosa, UniProt Q02EA7, C17A/C53A).
T5 sequence (Q02EA7 1-163 C17A/C53A): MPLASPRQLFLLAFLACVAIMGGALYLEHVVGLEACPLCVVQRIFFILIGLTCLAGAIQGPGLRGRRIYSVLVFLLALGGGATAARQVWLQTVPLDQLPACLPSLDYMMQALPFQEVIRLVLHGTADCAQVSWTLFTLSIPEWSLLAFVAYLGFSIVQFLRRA
Briefly: In vitro ubiquinone reduction assay with purified PaDsbB2. In kind it is biochemical, P. aeruginosa.

The test system of assay [6] is elastase (LasB) activity of P. aeruginosa wild type. Briefly: Elastase in vivo assay, wild type P. aeruginosa. In kind it is cell-based. The following applies: Pseudomonas aeruginosa, 15 h, read-out: Elastase in vivo assay IC50, WT.
For the next assay, the target named is T6, PaDsbB1 (ΔdsbB2) (Pseudomonas aeruginosa, UniProt Q02TM7).
T6 sequence (Q02TM7 1-169): T1 sequence (Q02TM7 1-169)
Briefly: Elastase in vivo assay, ΔdsbB2 mutant. It is filed as cell-based, P. aeruginosa.

Where [7] appears, read: read-out: PDI IC50, insulin reduction assay, Table 2, 95% CI in parenthesis.
The mark [8] stands for this setting: read-out: In vitro assay MtVKOR Ki, 1–100 μM Ubiquinone-1, ±SD.

For the compound `O=C1c2ccccc2C(=O)C1c1ccc(Br)cc1` [Bromindione, reference compound], in assay [1], the 50% inhibitory concentration (IC50) was greater than 100 µM. Besides, on MtVKOR, the IC50 was 5 ± 0.73 µM and the Ki amounted to 1 ± 0.09 µM. The “Inhibition of MtVKOR in E. coli screening strain (control)” value in assay [2] (agar plates, HTS control) is recorded as “inhibits”. Further, in assay [3], the “Inhibition of PaDsbB1 in E. coli screening strain (control)” value is “but not PaDsbB1”. Moreover, the “In vivo assay (MIC)” value in the assay with M. tuberculosis H37Rv worked out at 250 ± 0 µM.

As to `O=C(Nc1ccccc1)c1cc(Cl)ccc1O` [MT1], in assay [1] (setting [7]), the IC50 was greater than 100 µM. Also, the “MIC in VKOR knockdown (induced) versus non-induced strain (in words)” value in assay [4] is “lower MICs”. The “In vivo assay (MIC)” value in the assay on M. tuberculosis H37Rv amounted to 50.5 ± 0 µM. In assay [5], the “Inhibition of RnVKOR expressed in E. coli” value (from here on “Inhibition of RnVKOR”) is “inhibited”.

On to `OC(CNCc1ccccc1)Cn1c2ccc(Cl)cc2c2cc(Cl)ccc21` (centres unmarked) [MT2], for which, in assay [1] (setting [7]), the IC50 is greater than 100 µM. Also, the Ki at MtVKOR (setting [8]) stood at 4 ± 0.3 µM. In addition, the “MIC in VKOR knockdown (induced) versus non-induced strain (in words)” value in assay [4] was “lower MICs”. Further, the “In vivo assay (MIC)” value in the assay on M. tuberculosis H37Rv was determined as 26.04 ± 9 µM. For the same compound, the “Inhibition of RnVKOR” value in assay [5] is on record as “inhibited”.

For `c1ccc(Nc2nc3nonc3nc2Nc2ccccc2)cc1` [MT7], in assay [1] (setting [7]), the IC50 is greater than 100 µM. For the same compound, in assay [4], the “MIC in VKOR knockdown (induced) versus non-induced strain (in words)” value is “lower MICs”. For the same compound, the “In vivo assay (MIC)” value in the assay with M. tuberculosis H37Rv was 41 ± 0 µM. In assay [5], the “Inhibition of RnVKOR” value is “inhibited”.

For `Nc1ncn([C@@H]2O[C@H](CO)[C@@H](O)[C@H]2O)c(=O)n1` [MT9], the IC50 in [1] (setting [7]) was greater than 100 µM. The Ki at MtVKOR (setting [8]) stood at 2 ± 0.05 µM. The “MIC against MtVKOR when expressed in E. coli (Figure 3)” value in assay [2] amounted to 0.44 µM (≈ 0.107 µg/mL). Besides, the “In vivo assay (MIC)” value in the assay on M. tuberculosis H37Rv was greater than 979 ± 0 µM.

As to `NC(=O)c1nc(Cl)c(Cl)c(Cl)c1Cl` [PA1], the IC50 is 530 ± 60 µM against PaDsbB1; 150 ± 50 µM against EcDsbB; 600 ± 50 µM against PaDsbB2; 280 µM in [6]; greater than 100 µM in assay [1]; 121 µM on PaDsbB1 (ΔdsbB2). Besides, the Ki on EcDsbB was 100 ± 30 µM. The “Inhibition of PDI activity (in words)” value in assay [1] (insulin reduction assay) was “does not target”. The “Inhibition of RnVKOR” value in assay [5] is on record as “does not target”.

Turning to `N#CC(C#N)=NNc1ccccc1` [PA2], the IC50 is 83 ± 17 µM on PaDsbB1; 37.5 ± 5 µM on EcDsbB; 83 ± 13 µM against PaDsbB2; greater than 100 µM in [6]; 98.3 µM in assay [1]; greater than 100 µM at PaDsbB1 (ΔdsbB2). This compound gave a Ki on EcDsbB of 30 ± 7 µM. The “Inhibition of PDI activity (in words)” value in assay [1] (insulin reduction assay) was “inhibited”.

With `Cn1c(=O)c([N+](=O)[O-])c(Cl)c2ccccc21` [PA3], the IC50 was 6 ± 0.6 µM against PaDsbB1; 3 ± 0.11 µM against PaDsbB2; 646 µM in assay [6]; 98 µM in assay [1]; 9 µM at PaDsbB1 (ΔdsbB2). Moreover, the Ki on PaDsbB1 came out at 2.8 ± 0.2 µM; at EcDsbB it was 13 ± 1.5 µM; at PaDsbB2, 7.5 ± 0.8 µM. Besides, in assay [1] (insulin reduction assay), the “Inhibition of PDI activity (in words)” value is “inhibited”.

For `O=c1c(Cl)c(Cl)cnn1Cc1ccccc1Cl` [compound 12, reference compound], the IC50 was 4.1 ± 0.6 µM on PaDsbB1; 0.014 ± 0.0001 µM against EcDsbB; 6 ± 1 µM at PaDsbB2; 229 µM in assay [6]; greater than 100 µM in assay [1]; 8.6 µM on PaDsbB1 (ΔdsbB2). Besides, the Ki is 3 ± 0.2 µM on PaDsbB1, 0.005 ± 0.001 µM on EcDsbB and 4 ± 0.2 µM at PaDsbB2. In addition, the “Inhibition of PaDsbB1 in E. coli screening strain (control)” value in assay [3] is “inhibits”.
